Data: patent US20250073202A1, “METHODS TO TREAT RENAL DISORDERS USING CALCIUM CHANNEL INHIBITORS” (The Trustees of Indiana University, priority 2018, published 2025)
Entries after “also recorded” stand apart in the source; their conditions may differ. Marks after values point to notes of the source that are not given here.

Assays:
AKI-primed CD4+ cells = experiment: In vitro stimulation of AKI-primed kidney CD4+ cells with Ang II and elevated Na+, IL17 response; assay type: cell-based, rat; conditions: inhibitor 10 μM; Ang II 10^-7 M and 170 mM Na+; 12-14 hours; cells 7 days post I/R
Description: Total RNA was obtained from kidney using Trizol and the Zymogen RNA extraction kit and cDNA was prepared using MMLV enzyme (Invitrogen, Carlsburg, CA). Quantitative real time PCR (qPCR) using gene specific primers was performed using ABI 7500 (Applied Biosystems, Foster City, CA). mRNA values were calculated using 2^−ΔΔCt. Specific primers sequences for IL-6 (catalog #Rn01410330_m1), Kim-1 (#Rn00597703_m1) and IL17 (Rn01757168_m1) were purchased from ThermoFisher (Waltham, MA).
(§1) To evaluate protein expression of IL17 or Orai1, Orai2 or Orai3, cells were restimulated with PMA and ionomycin for 6 hours in the presence of monensin (Golgistop, 1 μg·ml, BD Biosciences) permeabilized with saponin ([…]) and stained with relevant antibody. Cells were scanned using flow cytometry (FACSCalibur, BD Biosciences, San Jose, CA) and scans were analyzed using Flowjo software (Tree Star, Ashland, OR).
CD4+T cells were isolated using the MACS Pan-T cell microbead separation kit (Miltenyl, Glabach, Germany). T cells were stimulated with plate bound anti-CD3 (precoated with 2 μg/mL) and soluble anti-CD28 (1 μg/mL). Cells (2.5×10^5 in 0.25 ml) were incubated 12-14 hours at 37° C. in RPMI medium supplemented with 10% FBS (Invitrogen) in a 48-well plate. Cells were challenged with Ang II (Sigma, 10^−7M) and raising the extracellular Na+ from 140 mM to 170 mM, using a 1 M NaCl solution. Calcium channel inhibitors 2ABP (10 μM, Sigma) AnCoA4 (10 μM, Millipore, Burlington, MA) and YM58483/BTP2 (10 μM) were included to evaluate effects on IL-17.

[1] = system: renal ischemia reperfusion injury; experiment: Bilateral renal ischemia/reperfusion (I/R) injury in rats, 24 hours after reperfusion (Study II); assay type: in vivo, rat
Description: All studies used male Sprague-Dawley rats (250-300 g) that were purchased from Envigo (Indianapolis, IN). Rats were anesthetized with a cocktail of ketamine (100 mg·kg^−1, KetoVed, Vedco Inc, St. Joseph, MO) and xylazine (50 mg·kg^−1, AnaSed, Lloyd Inc, Shenandoah IA). Rats were placed on a heated surgical table to maintain body temperature. A midline incision and either unilateral (left) or bilateral renal ischemia (as indicated in Results) was induced by applying micro-aneurism clamps on the renal pedicles for a period of 40 min. Re-establishment of perfusion was verified by visual examination following removal of the clamps. Rats were provided post-operative analgesia using buprenorphine-SR (1 mg·kg^−1).
(§2) Rats were allowed to recover for various periods of time as described in the Results. In Study I, lymphocytes were studied in vitro after recovery for either 2 or 7 days following I/R or sham surgery for evaluation of function in vitro or for FACS analysis. In Study II, the effect of SOCE on kidney injury was studied with the inhibitor YM58483/BPT2 (N-[4-[3,5-Bis(trifluoromethyl)-1H-pyrazol-1-yl]phenyl]-4-methyl-1,2,3-thiadiazole-5-carboxamide; Tocris/Bio-Techne Minneapolis, MN). Rats were pretreated p.o. 2-3 hours prior to surgery with YM58483.BPT2 (1 mg·kg^−1) in sugar-free chocolate pudding following dilution in 100% EtOH, at, a dose previously shown to affect T cell activation in rats. In some experiments, rats were also treated with the IL17Rc (150 ng/day i.p; R&D Systems). In addition, one experiment utilized a model of rhabdomyolysis, induced by injection of 50% glycerol (10 ml/kg) into the hindlimb muscle of rats following 16 hours of water restriction.
To measure creatinine, tail blood was collected in heparin containing tubes and centrifuged to collect plasma. Plasma creatinine was measured using a Pointe Scientific Analyzer and Creatinine Assay reagents using methods outlined by the manufacturer (Pointe Scientific, Canton MI). Urine was collected for 24 hours by placing rats in metabolic cages and urine volume was determined gravimetrically. Urine creatinine was measured using a colorimetric assay adopted for microplate readers. Creatinine clearance was measured using UCr*V/PCr. […]
(§3) Freshly harvested kidneys were minced and digested in liberase (2 μg/ml. Roche, Indianapolis IN) for 15 min at 37° C. using Gentle MACs (Miltenyli, San Diego, CA). The digested tissue was filtered through a 100-μm mesh and washed with RPMI containing 10% fetal bovine serum (Invitrogen). Mononuclear cells were isolated using Percol (Sigma) density gradient centrifugation.
as §1
The effect of SOCE on early ischemic kidney injury was studied with the inhibitor YM58483/BPT2 (N-[4-[3,5-Bis(trifluoromethyl)-1 H-pyrazol-1-yl]phenyl]-4-methyl-1,2,3-thiadiazole-5-carboxamide; Tocris/Bio-Techne Minneapolis, MN). Rats were pretreated 2-3 hours prior to surgery, p.o. in sugar-free chocolate pudding following dilution in 100% EtOH, at 1 mg·kg^−1, a dose previously shown affect T cell activation in rats. To evaluate if SOCE influences Th17 cells in AKI, rats were fed YM58483/BPT2 approximately 2 hours prior to […] and reperfusion. […] YM58483/2BPT2 also attenuated the infiltration of total CD4+ and CD8+ T-cells, B-cells, and dendritic cells following I/R (FIGS. 3C, 3D, 3E, and 3F).

[2] = system: glycerol-induced kidney injury; experiment: Glycerol-induced kidney injury (rhabdomyolysis model of AKI) in rats, 24 hours following injection; assay type: in vivo, rat
From the text: as §2
To measure creatinine, tail blood was collected in heparin containing tubes and centrifuged to collect plasma. Plasma creatinine was measured using a Pointe Scientific Analyzer and Creatinine Assay reagents using methods outlined by the manufacturer (Pointe Scientific, Canton MI). Urine was collected for 24 hours by placing rats in metabolic cages and urine volume was determined gravimetrically. Urine creatinine was measured using a colorimetric assay adopted for microplate readers. Creatinine clearance was measured using UCr*V/PCr.
as §3, §1

[3] = 24 hours following I/R, listed as YM58483/2BPT2
[4] = 24 hours following I/R, listed as YM58483/BPT
[5] = 24 hours following ischemia reperfusion, mean ± S.E.
[6] = 24 hours following glycerol injection, mean ± S.E.

## Cc1nnsc1C(=O)Nc1ccc(-n2nc(C(F)(F)F)cc2C(F)(F)F)cc1 [YM58483/BPT2, N-[4-[3,5-Bis(trifluoromethyl)-1H-pyrazol-1-yl]phenyl]-4-methyl-1,2,3-thiadiazole-5-carboxamide]
AKI-primed CD4+ cells
  increase in IL17+ cells (IL17 protein, FACS): completely blocked
  increase of IL17 mRNA: completely blocked
[1]; 24 hours after reperfusion, 1 mg/kg p.o. pretreatment
  mRNA expression of kidney injury marker-1 (Kim-1): significantly attenuated
[1]; 24 hours after reperfusion, YM58483 1 mg/kg p.o. 2-3 hours prior to surgery
  level of renal injury as plasma creatinine (vs vehicle): significantly attenuated; also recorded: significantly reduced
[1]; 24 hours following I/R
  CD8+ cells in kidney (vs vehicle): did not significantly effect
  Th1 cells post-ischemia: did not significantly influence
  Th2 cells post-ischemia: did not significantly influence
  infiltration of B-cells in kidney: attenuated
  infiltration of dendritic cells in kidney: attenuated
  kidney CD4+/IL17+ cells (vs vehicle): reduction was observed
[1]; 24 hours following I/R, 1 mg/kg p.o. pretreatment
  reduction of total IL17 expressing cells relative to vehicle: ~78%
[1]; 24 hours following I/R, listed as YM58483/2-BPT
  infiltration of total CD4+ T-cells in kidney (vs vehicle): attenuated
[1]; [3]
  CD8+ cells in kidney (vs vehicle): attenuated
  infiltration of total CD4+ T-cells in kidney (vs vehicle): attenuated
[1]; [4]
  infiltration of total CD4+ T-cells in kidney (vs vehicle): significantly reduced
  kidney CD4+/IL17+ cells (vs vehicle): significantly reduced
[1]; [5]
  CD4+ renal lymphocyte content: 26156 ± 4365 cells/gram
  CD4+/IL-17+ cells: 2020 ± 731 cells/gram
  CD8+ cells renal lymphocyte content: 8410 ± 1386 cells/gram
  CD8+IL-17+ cells: 127 ± 23 cells/gram
  Serum Creatinine: 3.7 ± 0.6 mg/dL
  Total IL-17+ cells: 9334 ± 4293 cells/gram
[2]; [6]
  CD4+ cells per g: 177606 ± 282 cells per g
  CD4+/IL-17+ cells per g: 20622 ± 4191* cells per g
  CD8+ cells per g: 342433 ± 76011 cells per g
  CD8+/IL-17+ cells per g: 19711 ± 6499* cells per g
  Serum Creatinine: 3.3 ± 0.4* mg/dl
  Total IL-17+ cells per g: 60109 ± 21033* cells per g
[2]; glycerol model, 24 hours
  rise in serum creatinine: significantly attenuated
  total number of IL17+ expressing cells: significantly attenuated
